Measurements as given in PubChem BioAssay AID1963861 (Molecular Pharmacology Branch, DTP, NCI, 2024).

Tested on: 885724-159-R-J1-PDC KRAS PDC multicell spheroid viability
Test: Anticancer human tumor 885724-159-R-J1-PDC patient-derived pancreatic adenocarcinoma cell line growth inhibition [KRAS2]
Details: for IC50: curve of first compound; for viability, T/C: stronger effect = lower value
Method in brief: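 KRAS-mutant tumor cells were grown as spheroids with HUVEC endothelial cells and human MSCs as stroma. Targeted agents were tested alone and with KRAS pathway inhibitors. Doses started at or near clinical Cmax, or 10 microM, descending half-log.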

[1] = second compound 0.1 µM, first compound 0.0316 µM
[2] = second compound 0.316 µM, first compound 0.0316 µM
[3] = second compound 1 µM, first compound 0.0316 µM
[4] = second compound 3.16 µM, first compound 0.0316 µM
[5] = second compound 10 µM, first compound 0.0316 µM
[6] = second compound 0.1 µM, first compound 0.1 µM
[7] = second compound 0.1 µM, first compound 0.316 µM
[8] = second compound 0.1 µM, first compound 1 µM
[9] = second compound 0.1 µM, first compound 3.16 µM
[10] = second compound 0.1 µM, first compound 10 µM
[11] = second compound 0.316 µM, first compound 0.1 µM
[12] = second compound 0.316 µM, first compound 0.316 µM
[13] = second compound 0.316 µM, first compound 1 µM
[14] = second compound 0.316 µM, first compound 3.16 µM
[15] = second compound 0.316 µM, first compound 10 µM
[16] = second compound 1 µM, first compound 0.1 µM
[17] = second compound 1 µM, first compound 0.316 µM
[18] = second compound 1 µM, first compound 1 µM
[19] = second compound 1 µM, first compound 3.16 µM
[20] = second compound 1 µM, first compound 10 µM
[21] = second compound 3.16 µM, first compound 0.1 µM
[22] = second compound 3.16 µM, first compound 0.316 µM
[23] = second compound 3.16 µM, first compound 1 µM
[24] = second compound 3.16 µM, first compound 3.16 µM
[25] = second compound 3.16 µM, first compound 10 µM
[26] = second compound 10 µM, first compound 0.1 µM
[27] = second compound 10 µM, first compound 0.316 µM
[28] = second compound 10 µM, first compound 1 µM
[29] = second compound 10 µM, first compound 3.16 µM
[30] = second compound 10 µM, first compound 10 µM
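Also: spheroids exposed to agents for 7 days before readout.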

For CC(=O)Nc1cccc(-n2c(=O)n(C3CC3)c(=O)c3c(Nc4ccc(I)cc4F)n(C)c(=O)c(C)c32)c1 + COc1cc2nc(C)nc(NC(C)c3cc(N)cc(C(F)(F)F)c3)c2cc1OC1CCOC1, the IC50 (second compound 0.1 µM) was 0.985 nM, the IC50 (second compound 0.316 µM) was 0.909 nM and the IC50 (second compound 1 µM) was 0.845 nM. For the same compound, the IC50 (second compound 3.16 µM) was 0.706 nM, the IC50 (second compound 10 µM) was < 0.1 nM and the viability, T/C (second compound 0.1 µM, first compound 0.0001 µM) was 91%. The viability, T/C (second compound 0.1 µM, first compound 0.000316 µM) was 73%, the viability, T/C (second compound 0.1 µM, first compound 0.001 µM) was 48.1% and the viability, T/C (second compound 0.1 µM, first compound 0.00316 µM) was 32.7%. The viability, T/C (second compound 0.1 µM, first compound 0.01 µM) was 26.2%, the viability, T/C [1] was 17% and the viability, T/C (second compound 0.316 µM, first compound 0.0001 µM) was 87.2%. The viability, T/C (second compound 0.316 µM, first compound 0.000316 µM) was 68.9%, the viability, T/C (second compound 0.316 µM, first compound 0.001 µM) was 46.4% and the viability, T/C (second compound 0.316 µM, first compound 0.00316 µM) was 34.3%. It also gave a viability, T/C (second compound 0.316 µM, first compound 0.01 µM) of 24.9%, a viability, T/C [2] of 17.3% and a viability, T/C (second compound 1 µM, first compound 0.0001 µM) of 89.8%. It also gave a viability, T/C (second compound 1 µM, first compound 0.000316 µM) of 68.4%, a viability, T/C (second compound 1 µM, first compound 0.001 µM) of 46.1% and a viability, T/C (second compound 1 µM, first compound 0.00316 µM) of 31.6%. The viability, T/C (second compound 1 µM, first compound 0.01 µM) was 24.6%, the viability, T/C [3] was 17.1% and the viability, T/C (second compound 3.16 µM, first compound 0.0001 µM) was 74.9%. The viability, T/C (second compound 3.16 µM, first compound 0.000316 µM) was 62.8%, the viability, T/C (second compound 3.16 µM, first compound 0.001 µM) was 44.4% and the viability, T/C (second compound 3.16 µM, first compound 0.00316 µM) was 27.6%. The viability, T/C (second compound 3.16 µM, first compound 0.01 µM) was 19.1%, the viability, T/C [4] was 10.7% and the viability, T/C (second compound 10 µM, first compound 0.0001 µM) was 34.8%. The viability, T/C (second compound 10 µM, first compound 0.000316 µM) was 18.5%, the viability, T/C (second compound 10 µM, first compound 0.001 µM) was 3.24% and the viability, T/C (second compound 10 µM, first compound 0.00316 µM) was 0.51%. The viability, T/C (second compound 10 µM, first compound 0.01 µM) was 0.67% and the viability, T/C [5] was 0.32%.

COC(=O)c1ccc2c(C(=Nc3ccc(N(C)C(=O)CN4CCN(C)CC4)cc3)c3ccccc3)c(O)[nH]c2c1 + COc1cc2nc(C)nc(NC(C)c3cc(N)cc(C(F)(F)F)c3)c2cc1OC1CCOC1 was tested, and the IC50 (second compound 0.1 µM) was 2290 nM, the IC50 (second compound 0.316 µM) was 2430 nM and the IC50 (second compound 1 µM) was 1980 nM. The IC50 (second compound 3.16 µM) was 1780 nM, the IC50 (second compound 10 µM) was < 31.6 nM and the viability, T/C [1] was 121%. The viability, T/C [6] was 127%, the viability, T/C [7] was 120% and the viability, T/C [8] was 118%. For the same compound, the viability, T/C [9] was 23.7%, the viability, T/C [10] was 1.54% and the viability, T/C [2] was 107%. It also gave a viability, T/C [11] of 114%, a viability, T/C [12] of 102% and a viability, T/C [13] of 103%. It also gave a viability, T/C [14] of 34.5%, a viability, T/C [15] of 0.96% and a viability, T/C [3] of 103%. The viability, T/C [16] was 106%, the viability, T/C [17] was 107% and the viability, T/C [18] was 98.1%. It also gave a viability, T/C [19] of 17%, a viability, T/C [20] of 1.09% and a viability, T/C [4] of 93.8%. It also gave a viability, T/C [21] of 98.6%, a viability, T/C [22] of 104% and a viability, T/C [23] of 95.8%. For the same compound, the viability, T/C [24] was 3.95%, the viability, T/C [25] was 0.79% and the viability, T/C [5] was 46.7%. It also gave a viability, T/C [26] of 48.8%, a viability, T/C [27] of 19.4% and a viability, T/C [28] of 8.2%. The viability, T/C [29] was 0.75% and the viability, T/C [30] was 0.36%.

In the case of COc1cc(Nc2ncc3c(n2)-c2ccc(Cl)cc2C(c2c(F)cccc2OC)=NC3)ccc1C(=O)O + COc1cc2nc(C)nc(NC(C)c3cc(N)cc(C(F)(F)F)c3)c2cc1OC1CCOC1, the IC50 (second compound 0.1 µM) is reported as > 10000 nM, the IC50 (second compound 0.316 µM) is reported as > 10000 nM and the IC50 (second compound 1 µM) is reported as > 10000 nM. For the same compound, the IC50 (second compound 3.16 µM) was > 10000 nM, the IC50 (second compound 10 µM) was 88.3 nM and the viability, T/C [1] was 110%. The viability, T/C [6] was 99.3%, the viability, T/C [7] was 90.9% and the viability, T/C [8] was 105%. The viability, T/C [9] was 106%, the viability, T/C [10] was 108% and the viability, T/C [2] was 114%. The viability, T/C [11] was 96.4%, the viability, T/C [12] was 90.7% and the viability, T/C [13] was 96.1%. For the same compound, the viability, T/C [14] was 102%, the viability, T/C [15] was 105% and the viability, T/C [3] was 108%. The viability, T/C [16] was 102%, the viability, T/C [17] was 101% and the viability, T/C [18] was 93.7%. It also gave a viability, T/C [19] of 108%, a viability, T/C [20] of 107% and a viability, T/C [4] of 98.8%. It also gave a viability, T/C [21] of 96.8%, a viability, T/C [22] of 92.3% and a viability, T/C [23] of 92.5%. It also gave a viability, T/C [24] of 97.5%, a viability, T/C [25] of 114% and a viability, T/C [5] of 83.4%. For the same compound, the viability, T/C [26] was 45.5%, the viability, T/C [27] was 44% and the viability, T/C [28] was 45.6%. For the same compound, the viability, T/C [29] was 62.9% and the viability, T/C [30] was 30.3%.

With COc1cc2nccc(Oc3ccc(NC(=O)C4(C(=O)Nc5ccc(F)cc5)CC4)cc3)c2cc1OC + COc1cc2nc(C)nc(NC(C)c3cc(N)cc(C(F)(F)F)c3)c2cc1OC1CCOC1 the IC50 (second compound 0.1 µM) was > 10000 nM, the IC50 (second compound 0.316 µM) was > 10000 nM and the IC50 (second compound 1 µM) was 4630 nM. The IC50 (second compound 3.16 µM) was 1720 nM, the IC50 (second compound 10 µM) was < 31.6 nM and the viability, T/C [1] was 99.6%. For the same compound, the viability, T/C [6] was 102%, the viability, T/C [7] was 104% and the viability, T/C [8] was 91%. It also gave a viability, T/C [9] of 65.2%, a viability, T/C [10] of 60% and a viability, T/C [2] of 96.6%. It also gave a viability, T/C [11] of 93.5%, a viability, T/C [12] of 93.1% and a viability, T/C [13] of 80.9%. The viability, T/C [14] was 65.8%, the viability, T/C [15] was 54.8% and the viability, T/C [3] was 97.4%. The viability, T/C [16] was 93.4%, the viability, T/C [17] was 76.2% and the viability, T/C [18] was 73.9%. It also gave a viability, T/C [19] of 48.7%, a viability, T/C [20] of 44.6% and a viability, T/C [4] of 88.8%. It also gave a viability, T/C [21] of 97.9%, a viability, T/C [22] of 89.5% and a viability, T/C [23] of 67.6%. It also gave a viability, T/C [24] of 28.7%, a viability, T/C [25] of 31.8% and a viability, T/C [5] of 55%. It also gave a viability, T/C [26] of 17.2%, a viability, T/C [27] of 21.5% and a viability, T/C [28] of 28.1%. It also gave a viability, T/C [29] of 0.71% and a viability, T/C [30] of 0.34%.
